Source: ChEMBL document CHEMBL4425162, “Discovery of potent wall teichoic acid early stage inhibitors” (Bioorg Med Chem Lett, 2016)
The source made the active and inactive calls. The rule behind the calls is not given here.

Tests used:
[1] = tested on: Staphylococcus aureus subsp. aureus COL; experiment: Inhibition of Staphylococcus aureus COL TarO assessed as concentration of compound for potentiation of action of imipenem-mediated bacterial growth inhibition
[2] = Binding affinity to Methicillin-resistant Staphylococcus aureus COL TarG assessed as suppression of targocil-mediated bacterial growth inhibition after 20 hrs in presence of L-638; set-up: species or system Staphylococcus aureus subsp. aureus COL
[3] = Inhibition of Methicillin-resistant Staphylococcus aureus COL TarO assessed as suppression of bacteriophageK-mediated cell lysis; set-up: species or system Staphylococcus aureus subsp. aureus COL
[4] = Inhibition of mnaA (unknown origin) at 200 uM
[5] = Inhibition of Staphylococcus aureus TarO; set-up: species or system Staphylococcus aureus subsp. aureus COL
[6] = Inhibition of TarA (unknown origin) at 200 uM
[7] = tested on: Staphylococcus epidermidis; experiment: Inhibition of Methicillin-resistant Staphylococcus epidermidis TarO assessed as percentage of MRSE MITC<=25 uM for 25 isolates; set-up: scale not given: the % may be the effect or the level left
Staphylococcus aureus = experiment: Inhibition of Methicillin-resistant Staphylococcus aureus TarO assessed as percentage of MRSA MITC<=25 uM for 25 isolates; set-up: scale not given: the % may be the effect or the level left

| SMILES | MITC95 [1] [µM] | EC50 [2] [µM] | EC50 [3] [µM] | inhibition [4] | IC50 [5] [µM] | inhibition [6] | Activity [7] [%] | Activity (Staphylococcus aureus) [%] |
| --- | --- | --- | --- | --- | --- | --- | --- | --- |
| CC1(C)[C@@H]2CC[C@@]1(C)[C@@H](NC(=O)CCn1c(C3CCCCC3)nc3ccccc31)C2 | 16.7 | 57.7 | 178 | – | – | – | – | – |
| CC(=O)N1CCC(c2nc3ccccc3n2CCC(=O)N[C@H]2CC3CC[C@@]2(C)C3(C)C)CC1 | > 200 | > 200 | > 200 | – | – | – | – | – |
| CC1(C)C2CC[C@]1(C)[C@@H](NC(=O)CCn1c(C3CCN(S(C)(=O)=O)CC3)nc3ccccc31)C2 | > 200 | > 200 | > 200 | – | – | – | – | – |
| CCN(C(=O)CCn1c(C2CCCCC2)nc2ccccc21)C1CCCCCC1 | 4.7 | 200 | 200 | – | – | – | – | – |
| CC(C)(C)OC(=O)N1CCC(c2nc3ccccc3n2CCC(=O)N[C@H]2CC3CC[C@@]2(C)C3(C)C)CC1 | 9.4 | 58.7 | 162 | – | – | – | – | – |
| CC1(C)C2CC[C@]1(C)[C@@H](NC(=O)CCn1c(C3CCNCC3)nc3ccccc31)C2 | > 200 | > 200 | > 200 | – | – | – | – | – |
| CCN(C(=O)CCn1c(C2CCCCC2)nc2ccccc21)C1CCCCC1 | 1.9 | 6.2 | 10.1 | – | – | – | – | – |
| CCC1CCN(c2nc3ccccc3n2CCC(=O)N(CC)C2CCCCC2)CC1 | 0.1 | 0.22 | 0.39 | – | – | – | – | – |
| CC1(C)[C@@H]2CC[C@@]1(C)[C@H](NC(=O)CCn1c(C3CCCCC3)nc3ccccc31)C2 | 1.6 | 2.4 | 7.9 | inactive | 0.4 | inactive | – | – |
| CCN(C(=O)CCn1c2ccc(Br)cc2nc1[C@H]1CC[C@H](CC)CC1)C1CCCCC1 | 0.004 | 0.015 | 0.027 | – | – | – | 46 | 80 |
| CCN(C(=O)CCn1c(N2CCCCC2)nc2ccccc21)C1CCCCC1 | 4.7 | 7 | > 200 | – | – | – | – | – |
| O=C(CCn1c(C2CCCCC2)nc2ccccc21)NC1CCCCC1 | 25 | 138 | 200 | – | – | – | – | – |
| CCC1CCC(c2nc3ccccc3n2CCC(=O)N(CC)C2CCCCC2)CC1 (stereo not given) | 0.03 | 0.24 | 0.22 | – | – | – | – | – |
| CCN(C(=O)CCn1c(N2CCC(C(C)(C)C)CC2)nc2ccccc21)C1CCCCC1 | 0.016 | 0.13 | 0.25 | – | – | – | 29 | 76 |
| CN(C(=O)CCn1c(C2CCCCC2)nc2ccccc21)C1CCCCC1 | 4.7 | 11.4 | 25 | – | – | – | – | – |
| CCN(C(=O)CCn1c(N2CCC(C)CC2)nc2ccccc21)C1CCCCC1 | 1.3 | 0.91 | 3.8 | – | – | – | – | – |
| CCN(C(=O)CCn1c(C2CCCCC2)nc2ccccc21)C1CCCC1 | 12.5 | 29.7 | 200 | – | – | – | – | – |
| CCN1CCC(c2nc3ccccc3n2CCC(=O)N[C@H]2CC3CC[C@@]2(C)C3(C)C)CC1 | > 200 | > 200 | > 200 | – | – | – | – | – |
| CCN(C(=O)CCn1c2cccc(C)c2nc1[C@H]1CC[C@H](CC)CC1)C1CCCCC1 | 0.1 | 0.8 | 0.9 | – | – | – | 92 | 68 |
| CCCN(C(=O)CCn1c(C2CCCCC2)nc2ccccc21)C1CCCCC1 | 6.2 | 7.8 | 200 | – | – | – | – | – |
| CCN(C(=O)CCn1c(C2CCC(C(C)(C)C)CC2)nc2ccccc21)C1CCCCC1 (stereo not given) | 0.015 | 0.05 | 0.25 | – | – | – | – | – |
| CCN(C(=O)CCn1c2cccc(Br)c2nc1[C@H]1CC[C@H](CC)CC1)C1CCCCC1 | 0.3 | 1.3 | 3.4 | – | – | – | 83 | 68 |
| CCN(C(=O)CCn1c(C2CCCCC2)nc2ccccc21)c1ccccc1 | 50 | 200 | 200 | – | – | – | – | – |
| CCN(C(=O)CCn1c2cc(Br)ccc2nc1[C@H]1CC[C@H](CC)CC1)C1CCCCC1 | 0.031 | 0.33 | 0.24 | – | – | – | 42 | 68 |
